From patent publication US20230099344A1, “COMPOUNDS AND METHODS FOR THE TARGETED DEGRADATION OF IRAK-4” (Arvinas Operations, Inc., priority 2021, published 2023) come the findings set out here.

The assay concerns the target T1, IRAK-4 (Homo sapiens, UniProt Q9NWZ3).
T1 sequence (Q9NWZ3 1-460): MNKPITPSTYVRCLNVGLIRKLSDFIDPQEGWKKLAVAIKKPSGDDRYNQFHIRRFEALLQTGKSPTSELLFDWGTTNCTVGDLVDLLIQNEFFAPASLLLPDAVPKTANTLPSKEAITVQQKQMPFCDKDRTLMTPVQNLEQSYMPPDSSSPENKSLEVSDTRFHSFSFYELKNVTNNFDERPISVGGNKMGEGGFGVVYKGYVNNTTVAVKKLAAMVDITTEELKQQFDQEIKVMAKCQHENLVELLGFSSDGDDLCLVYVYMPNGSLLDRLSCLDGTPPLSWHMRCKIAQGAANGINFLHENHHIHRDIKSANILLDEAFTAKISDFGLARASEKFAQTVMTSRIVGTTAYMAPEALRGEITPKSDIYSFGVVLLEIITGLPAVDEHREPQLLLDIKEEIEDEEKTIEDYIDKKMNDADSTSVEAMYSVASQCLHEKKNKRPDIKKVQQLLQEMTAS
The assay is described as follows: IRAK-4 ELISA, PBMC degradation. The assay is classed as cell-based. The arrangement: endogenous in cells; host or cells: PBMC. The conditions noted are these: treated overnight. The method in brief: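 OCI-Ly10 cells (1×10^6/ml) or PBMC (2×10^6/ml) treated with compound on the day of seeding and incubated overnight. IRAK-4 protein remaining in cell lysates quantified by sandwich ELISA.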
A general note: An ELISA detects its analyte on a solid surface through an enzyme-linked reagent.

As usually defined, the DC50 is the concentration giving 50% degradation. A lower DC50 goes with a more potent degrader. As usually defined, the Dmax is the largest share of the target that was removed. With `CC(C)Oc1cc2nn(C3CCN(CC4(F)CN(c5ccc6c(n5)C(=O)N(C5CCC(=O)NC5=O)C6=O)C4)CC3)cc2cc1NC(=O)c1cnn2cccnc12` (stereo not drawn) [Example 411, N-(2-(1-((1-(6-(2,6-dioxopiperidin-3-yl)-5,7-dioxo-6,7-dihydro-5H-pyrrolo[3,4-b]pyridin-2-yl)-3-fluoroazetidin-3-yl)methyl)piperidin-4-yl)-6-isopropoxy-2H-indazol-5-yl)pyrazolo[1,5-a]pyrimidine-3-carboxamide], the DC50 was in the range of 5 to 10 nM, the Dmax lay in the range of 80 to 90% and the “PBMC DC90” value is “D (D represents a DC90 value ≥50 nM)”.

In the case of `CC1(N2CCC(n3cc4cc(NC(=O)c5cnn6cccnc56)c(OCC5CC5)cc4n3)CC2)CN(c2ccc3c(c2)C(=O)N(C2CCC(=O)NC2=O)C3=O)C1` (stereo not drawn) [Example 228], the 50% degradation concentration (DC50) was in the range of 1 to 5 nM; the Dmax was in the range of 80 to 90%; the “PBMC DC90” value was “C (C represents a DC90 value ≥25.0 nM and <50 nM)”.

As for `O=C1CCC(N2C(=O)c3ccc(N4CC(CN5CCC(n6cc7cc(NC(=O)c8cnn9cccnc89)c(C8CC8)cc7n6)CC5)C4)cc3C2=O)C(=O)N1` (stereo not drawn) [Example 185], the DC50 is < 1 nM, the Dmax is ≥ 90% and the “PBMC DC90” value was “A (A represents a DC90 value <10.0 nM)”.

With `O=C1CCC(NC(=O)c2ccc(N3CC(F)(CN4CCC(N5Cc6cc(NC(=O)c7cnn8cccnc78)c(OCC7CC7)cc6C5=O)CC4)C3)cc2F)C(=O)N1` (stereo not drawn) [Example 298], the DC50 was ≥ 10 nM, the Dmax was ≥ 90% and the “PBMC DC90” value is listed as “D (D represents a DC90 value ≥50 nM)”.

As to `CC(C)Oc1cc2c(cc1NC(=O)c1cnn3cccnc13)CN(C1CCN(CC3CN(c4ccc(C(=O)NC5CCC(=O)NC5=O)c(F)c4)C3)CC1)C2=O` (stereo not drawn) [Example 292], the DC50 was < 1 nM, the Dmax was ≥ 90% and the “PBMC DC90” value was “A (A represents a DC90 value <10.0 nM)”.

On to `COc1cc(N2CC(N(C)[C@H]3CC[C@H](N4Cc5cc(NC(=O)c6cnn7cccnc67)c(OC(C)C)cc5C4=O)CC3)C2)cc2c1C(=O)N(C1CCC(=O)NC1=O)C2=O` (stereo partly drawn) [Example 321], for which the DC50 lay in the range of 1 to 5 nM, the Dmax was ≥ 90% and the “PBMC DC90” value was “A (A represents a DC90 value <10.0 nM)”.

`O=C1CCC(N2Cc3cc(N4CC(F)(CN5CCC(n6cc7cc(NC(=O)c8cnn9cccnc89)c(OCC8CC8)cc7n6)CC5)C4)cc(F)c3C2=O)C(=O)N1` (stereo not drawn) [Example 420, N-[6-(cyclopropylmethoxy)-2-[1-[[1-[2-(2,6-dioxo-3-piperidyl)-7-fluoro-1-oxo-isoindolin-5-yl]-3-fluoro-azetidin-3-yl]methyl]-4-piperidyl]indazol-5-yl]pyrazolo[1,5-a]pyrimidine-3-carboxamide]: the DC50 is < 1 nM, the Dmax is ≥ 90% and the “PBMC DC90” value is recorded as “A (A represents a DC90 value <10.0 nM)”.

Take `CC(C)Oc1cc2c(cc1NC(=O)c1cnn3cccnc13)CN(C1CCN(CC3(O)CN(c4ccc5c(c4)C(=O)N(C4CCC(=O)NC4=O)C5=O)C3)CC1)C2=O` (stereo not drawn) [Example 61]: the DC50 was < 1 nM, the Dmax is ≥ 90% and the “PBMC DC90” value is “A (A represents a DC90 value <10.0 nM)”.

In the case of `CC(C)Oc1cc2nn([C@H]3CC[C@H](NCC4(F)CN(c5ccc6c(c5)C(=O)N(C5CCC(=O)NC5=O)C6=O)C4)CC3)cc2cc1NC(=O)c1cnn2cccnc12` (stereo partly drawn) [Example 348], the DC50 is < 1 nM, the Dmax is ≥ 90% and the “PBMC DC90” value was “A (A represents a DC90 value <10.0 nM)”.

For `COc1cc(N2CCC(CN3CCC(n4cc5cc(NC(=O)c6cnn7cccnc67)c(OCC6CC6)cc5n4)CC3)CC2)cc2c1C(=O)N(C1CCC(=O)NC1=O)C2=O` (stereo not drawn) [Example 133], the DC50 was < 1 nM, the Dmax was ≥ 90% and the “PBMC DC90” value was “A (A represents a DC90 value <10.0 nM)”.

For the compound `CN(C1CCC(N2Cc3cc(NC(=O)c4cnn5cccnc45)c(OCC4CC4)cc3C2=O)CC1)C1CN(c2ccc3c(c2)C(=O)N(C2CCC(=O)NC2=O)C3=O)C1` (stereo not drawn) [Example 345], the DC50 is < 1 nM, the Dmax is ≥ 90% and the “PBMC DC90” value is “A (A represents a DC90 value <10.0 nM)”.

As for `O=C1CCC(N2C(=O)c3ccc(N4CC(N(CC(F)F)C5CCC(n6cc7cc(NC(=O)c8cnn9cccnc89)c(OCC8CC8)cc7n6)CC5)C4)cc3C2=O)C(=O)N1` (stereo not drawn) [Example 326], the DC50 is 1 to 5 nM; the Dmax was ≥ 90%; the “PBMC DC90” value was “B (B represents a DC90 value ≥10.0 nM and <25.0 nM)”.

As for `CC(C)Oc1cc2nn(C3CCN(CCN4CCN(c5ccc6c(c5)C(=O)N(C5CCC(=O)NC5=O)C6=O)CC4)CC3)cc2cc1NC(=O)c1cnn2cccnc12` (stereo not drawn) [Example 137], the DC50 is < 1 nM, the Dmax was ≥ 90% and the “PBMC DC90” value was “A (A represents a DC90 value <10.0 nM)”.

As for `CC(C)Oc1cc2c(cc1NC(=O)c1cnn3cccnc13)CN(C1CCN(CC3(F)CN(c4cccc5c4n(C)c(=O)n5C4CCC(=O)NC4=O)C3)CC1)C2=O` (stereo not drawn) [Example 385], the DC50 is < 1 nM, the Dmax was ≥ 90% and the “PBMC DC90” value was “A (A represents a DC90 value <10.0 nM)”.

`CC(C)Oc1cc2c(cc1NC(=O)c1cnn3cccnc13)CN(C[C@@H](F)C1CCN(CC3CN(c4ccc5c(c4)C(=O)N(C4CCC(=O)NC4=O)C5=O)C3)CC1)C2=O` (stereo partly drawn) [Example 70]: the DC50 was < 1 nM, the Dmax is ≥ 90% and the “PBMC DC90” value is on record as “A (A represents a DC90 value <10.0 nM)”.

`CC(C)Oc1cc2c(cc1NC(=O)c1cnn3cccnc13)CN(C1CCN(C[C@@H]3CCN(c4ccc5c(c4)C(=O)N(C4CCC(=O)NC4=O)C5=O)C3)CC1)C2=O` (stereo partly drawn) [Example 80]: the DC50 lay within 1 to 5 nM, the Dmax is ≥ 90% and the “PBMC DC90” value is “A (A represents a DC90 value <10.0 nM)”.

Turning to `CC(C)Oc1nc2c(cc1NC(=O)c1cnn3cccnc13)CN(C1CCN(CCc3ccc4c(c3)CN(C3CCC(=O)NC3=O)C4=O)CC1)C2=O` (stereo not drawn) [Example 399], the DC50 fell in the range of 1 to 5 nM; the Dmax is ≥ 90%; the “PBMC DC90” value is “B (B represents a DC90 value ≥10.0 nM and <25.0 nM)”.

As for `COc1cc(N2CC(CN3CCC(n4cc5cc(NC(=O)c6cnn7cccnc67)c(OCC6CC6)cc5n4)CC3)C2)cc2c1C(=O)N(C1CCC(=O)NC1=O)C2=O` (stereo not drawn) [Example 131], the DC50 was < 1 nM, the Dmax was ≥ 90% and the “PBMC DC90” value is reported as “A (A represents a DC90 value <10.0 nM)”.

With `CC(C)Oc1cc2c(cc1NC(=O)c1cnn3cccnc13)CN(C1CCN(C(=O)C3CN(c4ccc5c(c4)C(=O)N(C4CCC(=O)NC4=O)C5=O)C3)CC1)C2=O` (stereo not drawn) [Example 71], the half-maximal degradation concentration (DC50) lay in the range of 1 to 5 nM; the Dmax is ≥ 90%; the “PBMC DC90” value is “B (B represents a DC90 value ≥10.0 nM and <25.0 nM)”.

Regarding `O=C1CCC(N2C(=O)c3ccc(N4CC5(CCC(N6CCC(n7cc8cc(NC(=O)c9cnn%10cccnc9%10)c(OCC9CC9)cc8n7)CC6)CC5)C4)cc3C2=O)C(=O)N1` (stereo not drawn) [Example 227], the DC50 lay within 1 to 5 nM, the Dmax was 80 to 90% and the “PBMC DC90” value was “A (A represents a DC90 value <10.0 nM)”.

As to `CC(C)Oc1cc2nn(C3CCN(CC4(F)CN(c5ccc6c(c5)C(=O)N(C5CCC(=O)NC5=O)C6=O)C4)CC3)cc2cc1NC(=O)c1cnn2ccc(N3C[C@H]4C[C@@H]3CO4)nc12` (stereo partly drawn) [Example 191], the DC50 is 5 to 10 nM, the Dmax lay in the range of 80 to 90% and the “PBMC DC90” value was “D (D represents a DC90 value ≥50 nM)”.

In the case of `CN(C1CCC(n2cc3cc(NC(=O)c4cnn5cccnc45)c(OCC4CC4)cc3n2)CC1)C1CN(c2ccc3c(c2)C(=O)N(C2CCC(=O)NC2=O)C3)C1` (stereo not drawn) [Example 355], the DC50 is 1 to 5 nM, the Dmax fell in the range of 80 to 90% and the “PBMC DC90” value is listed as “D (D represents a DC90 value ≥50 nM)”.

As for `CC(C)Oc1cc2nn(C3CCN(CC4(F)CN(c5cc6c(cn5)C(=O)N(C5CCC(=O)NC5=O)C6=O)C4)CC3)cc2cc1NC(=O)c1cnn2cccnc12` (stereo not drawn) [Example 422, N-(2-(1-((1-(2-(2,6-dioxopiperidin-3-yl)-1,3-dioxo-2,3-dihydro-1H-pyrrolo[3,4-c]pyridin-6-yl)-3-fluoroazetidin-3-yl)methyl)piperidin-4-yl)-6-isopropoxy-2H-indazol-5-yl)pyrazolo[1,5-a]pyrimidine-3-carboxamide], the DC50 was 1 to 5 nM; the Dmax lay in the range of 70 to 80%; the “PBMC DC90” value was “C (C represents a DC90 value ≥25.0 nM and <50 nM)”.

On to `CC(C)Oc1cc2nn(C[C@@H](F)C3CCN(CC4(F)CN(c5ccc6c(c5)C(=O)N(C5CCC(=O)NC5=O)C6=O)C4)CC3)cc2cc1NC(=O)c1cnn2cccnc12` (stereo partly drawn) [Example 414], for which the DC50 is 1 to 5 nM; the Dmax was in the range of 80 to 90%; the “PBMC DC90” value was “B (B represents a DC90 value ≥10.0 nM and <25.0 nM)”.

For `O=C1CCC(N2C(=O)c3ccc(N4CC(F)(CN5CCC(n6cc7cc(NC(=O)c8cnn9cccnc89)c(C(F)F)cc7n6)CC5)C4)cc3C2=O)C(=O)N1` (stereo not drawn) [Example 408, N-[6-(difluoromethyl)-2-[1-[[1-[2-(2,6-dioxo-3-piperidyl)-1,3-dioxo-isoindolin-5-yl]-3-fluoro-azetidin-3-yl]methyl]-4-piperidyl]indazol-5-yl]pyrazolo[1,5-a]pyrimidine-3-carboxamide], the DC50 was < 1 nM, the greatest degradation seen (Dmax) is ≥ 90% and the “PBMC DC90” value was “A (A represents a DC90 value <10.0 nM)”.
